Laboratory results reported in ChEMBL document CHEMBL4190297, “Cafestol, a Bioactive Substance in Coffee, Has Antidiabetic Properties in KKAy Mice” (J Nat Prod, 2017).
Activity calls are given as the source filed them. No cut-off for these calls is given here.

Legend:
[1] = organism: Mus musculus; experiment: Effect on Lipc mRNA expression levels in liver of KK-Ay diabetic mouse model at 0.4 to 1.1 mg added daily to normal chow pellets for 10 weeks by qRT-PCR analysis; assay type: functional, organism-based
[2] = organism: Mus musculus; experiment: Effect on FABP4 mRNA expression levels in adipose tissue of KK-Ay diabetic mouse model at 0.4 to 1.1 mg added daily to normal chow pellets for 10 weeks by qRT-PCR analysis; assay type: functional, organism-based
[3] = organism: Mus musculus; experiment: Effect on Mtor mRNA expression levels in muscle of KK-Ay diabetic mouse model at 0.4 to 1.1 mg added daily to normal chow pellets for 10 weeks by qRT-PCR analysis; assay type: functional, organism-based
[4] = organism: Mus musculus; experiment: Effect on Akt2 mRNA expression levels in liver of KK-Ay diabetic mouse model at 0.4 to 1.1 mg added daily to normal chow pellets for 10 weeks by qRT-PCR analysis; assay type: functional, organism-based
[5] = organism: Mus musculus; experiment: Effect on Acaca mRNA expression levels in liver of KK-Ay diabetic mouse model at 0.4 to 1.1 mg added daily to normal chow pellets for 10 weeks by qRT-PCR analysis; assay type: functional, organism-based
[6] = organism: Mus musculus; experiment: Effect on G6PD mRNA expression levels in liver of KK-Ay diabetic mouse model at 0.4 to 1.1 mg added daily to normal chow pellets for 10 weeks by qRT-PCR analysis; assay type: functional, organism-based
[7] = organism: Mus musculus; experiment: Effect on Abca1 mRNA expression levels in adipose tissue of KK-Ay diabetic mouse model at 0.4 to 1.1 mg added daily to normal chow pellets for 10 weeks by qRT-PCR analysis; assay type: functional, organism-based
[8] = organism: Mus musculus; experiment: Antidiabetic activity in KK-Ay diabetic mouse model assessed as reduction in plasma glucagon levels at 0.4 mg added daily to normal chow pellets for 10 weeks relative to control by radioimmunoassay; assay type: functional; design: scale not given: the % may be the effect or the level left
[9] = organism: Mus musculus; experiment: Induction of 3.3 mM glucose-stimulated insulin secretion in pancreatic islets isolated from KK-Ay diabetic mouse model at 0.4 mg added daily to normal chow pellets for 10 weeks followed by glucose stimulation of isolated pancreatic islets for 1 hr by radioimmunoassay relative to control; assay type: functional
[10] = organism: Mus musculus; experiment: Antidiabetic activity in KK-Ay diabetic mouse model assessed as increase in INSR mRNA expression levels in liver tissue at 1.1 mg added daily to normal chow pellets for 10 weeks by qRT-PCR analysis; assay type: functional, organism-based
[11] = organism: Mus musculus; experiment: Effect on Sirt1 mRNA expression levels in muscle of KK-Ay diabetic mouse model at 0.4 to 1.1 mg added daily to normal chow pellets for 10 weeks by qRT-PCR analysis; assay type: functional, organism-based
[12] = organism: Mus musculus; experiment: Effect on PPARGC1alpha mRNA expression levels in liver of KK-Ay diabetic mouse model at 0.4 to 1.1 mg added daily to normal chow pellets for 10 weeks by qRT-PCR analysis; assay type: functional, organism-based
[13] = organism: Mus musculus; experiment: Toxicity in KK-Ay diabetic mouse model assessed as increase in body weight at 1.1 mg added daily to normal chow pellets for 8 weeks; assay type: organism-based; details: in vivo, po, 1344 h
[14] = organism: Mus musculus; experiment: Effect on Abca1 mRNA expression levels in muscle of KK-Ay diabetic mouse model at 0.4 to 1.1 mg added daily to normal chow pellets for 10 weeks by qRT-PCR analysis; assay type: functional, organism-based
[15] = organism: Mus musculus; experiment: Effect on LXRalpha mRNA expression levels in liver of KK-Ay diabetic mouse model at 0.4 to 1.1 mg added daily to normal chow pellets for 10 weeks by qRT-PCR analysis; assay type: functional, organism-based
[16] = organism: Mus musculus; experiment: Effect on Mtor mRNA expression levels in adipose tissue of KK-Ay diabetic mouse model at 0.4 to 1.1 mg added daily to normal chow pellets for 10 weeks by qRT-PCR analysis; assay type: functional, organism-based
[17] = organism: Mus musculus; experiment: Effect on PKCdelta mRNA expression levels in liver of KK-Ay diabetic mouse model at 0.4 to 1.1 mg added daily to normal chow pellets for 10 weeks by qRT-PCR analysis; assay type: functional, organism-based
[18] = organism: Mus musculus; experiment: Effect on Hprt1 mRNA expression levels in muscle of KK-Ay diabetic mouse model at 0.4 to 1.1 mg added daily to normal chow pellets for 10 weeks by qRT-PCR analysis; assay type: functional, organism-based
[19] = organism: Mus musculus; experiment: Effect on FAS mRNA expression levels in muscle of KK-Ay diabetic mouse model at 0.4 to 1.1 mg added daily to normal chow pellets for 10 weeks by qRT-PCR analysis; assay type: functional, organism-based
[20] = organism: Mus musculus; experiment: Effect on PPARalpha mRNA expression levels in adipose tissue of KK-Ay diabetic mouse model at 0.4 to 1.1 mg added daily to normal chow pellets for 10 weeks by qRT-PCR analysis; assay type: functional, organism-based
[21] = organism: Mus musculus; experiment: Effect on AMPKalpha2 mRNA expression levels in muscle of KK-Ay diabetic mouse model at 0.4 to 1.1 mg added daily to normal chow pellets for 10 weeks by qRT-PCR analysis; assay type: functional, organism-based
[22] = organism: Mus musculus; experiment: Effect on PKCdelta mRNA expression levels in adipose tissue of KK-Ay diabetic mouse model at 0.4 to 1.1 mg added daily to normal chow pellets for 10 weeks by qRT-PCR analysis; assay type: functional, organism-based
[23] = organism: Mus musculus; experiment: Effect on Hprt1 mRNA expression levels in adipose tissue of KK-Ay diabetic mouse model at 0.4 to 1.1 mg added daily to normal chow pellets for 10 weeks by qRT-PCR analysis; assay type: functional, organism-based
[24] = organism: Mus musculus; experiment: Effect on Mtor mRNA expression levels in liver of KK-Ay diabetic mouse model at 0.4 to 1.1 mg added daily to normal chow pellets for 10 weeks by qRT-PCR analysis; assay type: functional, organism-based
[25] = organism: Mus musculus; experiment: Effect on PPARGC1alpha mRNA expression levels in adipose tissue of KK-Ay diabetic mouse model at 0.4 to 1.1 mg added daily to normal chow pellets for 10 weeks by qRT-PCR analysis; assay type: functional, organism-based
[26] = organism: Mus musculus; experiment: Effect on CD36 mRNA expression levels in liver of KK-Ay diabetic mouse model at 0.4 to 1.1 mg added daily to normal chow pellets for 10 weeks by qRT-PCR analysis; assay type: functional, organism-based
[27] = organism: Mus musculus; experiment: Effect on Acaca mRNA expression levels in muscle of KK-Ay diabetic mouse model at 0.4 to 1.1 mg added daily to normal chow pellets for 10 weeks by qRT-PCR analysis; assay type: functional, organism-based
[28] = organism: Mus musculus; experiment: Antidiabetic activity in KK-Ay diabetic mouse model assessed as decrease in plasma triglycerides level at 0.14 to 1.1 mg added daily to normal chow pellets for 10 weeks by colorimetric analysis; assay type: functional, organism-based
[29] = organism: Mus musculus; experiment: Effect on SOD1 mRNA expression levels in liver of KK-Ay diabetic mouse model at 0.4 to 1.1 mg added daily to normal chow pellets for 10 weeks by qRT-PCR analysis; assay type: functional, organism-based
[30] = organism: Mus musculus; experiment: Antidiabetic activity in KK-Ay diabetic mouse model assessed as reduction in plasma glucagon levels at 1.1 mg added daily to normal chow pellets for 10 weeks relative to control by radioimmunoassay; assay type: functional; design: scale not given: the % may be the effect or the level left
[31] = organism: Mus musculus; experiment: Effect on Sirt1 mRNA expression levels in liver of KK-Ay diabetic mouse model at 0.4 to 1.1 mg added daily to normal chow pellets for 10 weeks by qRT-PCR analysis; assay type: functional, organism-based
[32] = organism: Mus musculus; experiment: Effect on FABP4 mRNA expression levels in muscle of KK-Ay diabetic mouse model at 0.4 to 1.1 mg added daily to normal chow pellets for 10 weeks by qRT-PCR analysis; assay type: functional, organism-based
[33] = organism: Mus musculus; experiment: Effect on water-fat fraction in liver of KK-Ay diabetic mouse model at 0.4 to 1.1 mg added daily to normal chow pellets for 10 weeks by MR spectroscopic analysis; assay type: functional, organism-based

## C[C@@]12CCc3occc3[C@H]1CC[C@@]13C[C@H](CC[C@H]12)[C@@](O)(CO)C3
[1]
  Activity: inactive
[2]
  Activity: inactive
[3]
  Activity: inactive
[4]
  Activity: inactive
[5]
  Activity: inactive
[6]
  Activity: inactive
[7]
  Activity: inactive
[8]
  Activity: 28%
[9]
  Activity: 67%
[10]
  Activity: Active
[11]
  Activity: inactive
[12]
  Activity: inactive
[13]
  Activity: > 3 g
[14]
  Activity: inactive
[15]
  Activity: inactive
[16]
  Activity: inactive
[17]
  Activity: inactive
[18]
  Activity: inactive
[19]
  Activity: inactive
[20]
  Activity: inactive
[21]
  Activity: inactive
[22]
  Activity: inactive
[23]
  Activity: inactive
[24]
  Activity: inactive
[25]
  Activity: inactive
[26]
  Activity: inactive
[27]
  Activity: inactive
[28]
  Activity: inactive
[29]
  Activity: inactive
[30]
  Activity: 20%
[31]
  Activity: inactive
[32]
  Activity: inactive
[33]
  Activity: inactive
